No end group written: not given here.
Assays:
[1] = tested on: RSV (A2 strain) in HEp-2 cells
[2] = tested on: RSV F (HEp-2 cells expressing RSV F, G and SH); assay type: cell-based, respiratory syncytial virus
[3] = tested on: RSV F protein; settings: ref [14], cited from earlier work
[4] = tested on: RSV F construct FN155 (F residues 155–550); settings: yeast two-hybrid assay; FN155 construct encoding F residues 155–550; ref [14]; cited from earlier work

DRLRPLSYPDTDVILMCFS [RhoA67-85]
RSV-induced syncytium formation ([1]; peptide incubated 1 h on ice with RSV, 5 and 10 μg/ml, HEp-2 cells, 3 d): did not block

DSPDSLENIPEKWTPEVKH [RhoA87-105]
cell-to-cell fusion induced by RSV F [2]: not inhibited
plaque formation ([1]; pretreatment of virus inoculum, 1 h on ice, peptide 5 and 10 μg/ml, HEp-2 cells, 3 d, relative to media-treated controls): did not have any effect

RhoA amino acids 67–110: F binding domain of RhoA (amino acids 67–110)
binding to RSV F amino acids 146–155 ([3]; RhoA amino acids 67–110): bind

RhoA: RhoA, a small GTPase of the Ras superfamily
binding to RSV F protein [3]: binds
binding to RSV F construct expressing the heptad repeat region [4]: not bind

TDVILMCFSIDSPDSLENI [RhoA77-95]
IC50 ([1]; 1 h): 250 nM

From article PMC7095870 (Nature Medicine, 2000)
